# Data as given in patent US10933141B2, “Formulations with reduced degradation of polysorbate” (Genentech, Inc., priority 2015, dated 2021).
# “Also recorded” adds a separate entry of the source.
# Key:
# [1] = target: T1, porcine pancreatic lipase (PPL) (Sus scrofa, UniProt P00591); assay: Enzymatic degradation of PS20 by PPL, 4.5 hour digestion, PS20 by RP-ELSD; type: biochemical; conditions: for decrease in PS20: 0.02% PS20, pH 5.5, 15 μg/mL PPL 4.5 hours room temperature, excipient 15% w/v (cyclodextrins 106 mM); for inhibitory effect on enzymatic PS20 degradation (in words): 0.02% PS20, 15 μg/mL PPL 4.5 hours, excipient 15% w/v (methionine 10 mg/mL)
# T1 construct: purchased Sigma Aldrich Inc. (St. Louis, Mo.)
# T1 sequence (P00591 1-450): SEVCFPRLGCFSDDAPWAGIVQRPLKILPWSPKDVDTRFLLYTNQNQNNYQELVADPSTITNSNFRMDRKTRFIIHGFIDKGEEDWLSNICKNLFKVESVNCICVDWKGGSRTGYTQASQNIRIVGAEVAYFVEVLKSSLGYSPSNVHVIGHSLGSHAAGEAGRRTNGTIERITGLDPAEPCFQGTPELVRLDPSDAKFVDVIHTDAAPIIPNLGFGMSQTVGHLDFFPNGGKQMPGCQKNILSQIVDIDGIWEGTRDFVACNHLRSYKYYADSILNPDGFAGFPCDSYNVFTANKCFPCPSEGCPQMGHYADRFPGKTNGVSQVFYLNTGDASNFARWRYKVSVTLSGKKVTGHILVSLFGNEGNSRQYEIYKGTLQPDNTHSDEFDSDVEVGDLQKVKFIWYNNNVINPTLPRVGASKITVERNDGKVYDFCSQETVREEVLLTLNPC
# Procedure: Polysorbate concentration was determined using reverse phase ultra-performance liquid chromatography using evaporative light scattering detection (RP-ELSD). Samples were analyzed using an Agilent 1100 series high performance liquid chromatography system (HPLC) fitted with a Waters Oasis MAX cartridge column (20×2.1 mm, 30 μm particle size). The HPLC system was set up with a switching valve directing column flow-through to either waste or a Varian 380-LC evaporative light scattering detector set to 100° C. The mobile phases consisted of 2% formic acid in water (Pump A) and 2% formic acid in isopropanol (Pump B). The pump gradient was isocratic at 10% pump B during equilibration, linear to 20% pump B for 1 minute, isocratic at 20% pump B for 2.4 minutes, linear to 100% pump B for 0.1 minutes, isocratic at 100% pump B for 1.1 minutes, linear to 10% pump B for 0.1 minutes, and finally isocratic at 10% pump B for 1.9 minutes. The switching valve directed column flow-through to waste at the beginning of every injection, and then directed flow to the detector after 2.4 minutes until the end of the gradient. In order to quantitate the PS20 concentration, a standard curve was generated by injecting 20 μL of solutions containing between 0% w/v and 0.4% w/v PS20.
# (§1) Several excipients were tested for their ability to protect PS20 against enzymatic hydrolysis including HP-α-CD, HP-β-CD, HP-γ-CD, SBE-β-CD, PVP, PEG 1500, sucrose, and methionine. Solutions of each excipient in pH 5.5 buffer were prepared containing a final concentration of 0.02% PS20 after enzyme addition. The concentration of HP-α-CD, HP-β-CD, HP-γ-CD, and SBE-β-CD in the excipient solutions was 106 mM. […] The remaining excipients (PVP, PEG 1500, sucrose) were added to 15% w/v to match the % w/v of HP-β-CD. Samples were digested with 15 μg/mL PPL enzyme for 4.5 hours at room temperature, followed by 30 minutes of heat inactivation at 85° C. Each sample was analyzed for PS20 concentration using high performance liquid chromatography with an inline evaporative light scattering detector. Samples were then placed at 5° C. overnight to allow for the formation of particles and were analyzed for visible and subvisible particles as described previously.
# (§2) The effect of the HP-β-CD concentration at different PS20 concentrations on the enzymatic degradation of PS20 was assessed to identify optimal concentrations for inhibition of enzymatic PS20 degradation. To evaluate the dependence of PS20 degradation on HP-β-CD concentration, the PS20 content was determined using RP-ELSD for triplicate samples containing different HP-β-CD concentrations at various PS20 concentrations. Samples containing 0.005% (FIG. 14A), 0.02% (FIG. 14B), 0.1% (FIG. 14C), and 0.4% PS20 (FIG. 14D) were digested using 15 μg/mL of PPL enzyme for 4.5 hours at room temperature in protein-free samples containing no excipient (control), 0, 0.5, 5, and 15% (w/v) HP-β-CD. PPL was added to each of the treatment solutions at a ratio of 75 […], with an equivalent volume of buffer added to the control solutions to determine the effect of HP-β-CD to polysorbate ratio on enzymatic degradation. Digestion was stopped by heat inactivation in an 85° C. water bath for 30 minutes. Each sample was analyzed for PS20 concentration using high performance liquid chromatography with an inline evaporative light scattering detector as described above. Samples were then placed at 5° C. overnight to allow for the formation of particles and placed on ice during analysis for visible and subvisible particles as described above.
# [2] = target: T1, porcine pancreatic lipase (PPL); assay: Subvisible particle formation after PPL digestion of PS20 (HIAC); type: physicochemical; conditions: 0.02% PS20; for effect on SVP formation (in words): 15 μg/mL PPL 4.5 hours, then 5° C. overnight, excipient 15% w/v (methionine 10 mg/mL)
# Procedure: Subvisible particles were measured using a HIAC 9703 particle counter equipped with an HRDL-150 detector and a 1 mL syringe. Performance of the instrument was verified with NIST-traceable 2 μm Polystyrene bead standards at 3000 counts/mL before each measurement session. The HIAC instrument was configured to a 10 mL/min flow rate, 0.1 mL tare volume, and 0.4 mL sample volume. The samples were analyzed using 4 runs of 0.4 mL sips, with the first run of each sample was discarded to prevent measurement error due to sample carryover. Results were reported as the average values for 1.4, 2, 5, 10, 15, and 25, 50 μm analysis filter sizes.
# as §1, §2
# [3] = PPL 4.5 hours, particles greater than 2, 5, or 10μ
compound,measurement,setting,value
2-hydroxypropyl-α-cyclodextrin [HP-α-CD],decrease in PS20,[1],1%
same,inhibitory effect on enzymatic PS20 degradation (in words),[1],significant inhibitory effects; also recorded: able to prevent enzymatic degradation of PS20
same,effect on SVP formation (in words),[2],significant inhibitory effects
2-hydroxypropyl-β-cyclodextrin [HP-β-CD],HP-β-CD concentration required to fully inhibit PS20 degradation,"[1]; 0.005% PS20, PPL 4.5 hours",0.5%
same,decrease in PS20,[1],7%
same,inhibitory effect on enzymatic PS20 degradation (in words),[1],significant inhibitory effects; also recorded: able to prevent enzymatic degradation of PS20
same,HP-β-CD concentration required to fully inhibit PS20 degradation,"[1]; 0.1% PS20, PPL 4.5 hours",15%
same,HP-β-CD:PS20 ratio required to inhibit enzymatic PS20 degradation,"[1]; PPL 4.5 hours, across PS20 and HP-β-CD concentrations",≥ 37.5 w/w
same,PS20 remaining (Relative %),"[1]; [HP-β-CD]/[PS20] wt/wt ratio 0.5 (mole ratio 0.4), PPL 4.5 hours",41.4 Relative %
same,PS20 remaining (Relative %),"[1]; [HP-β-CD]/[PS20] wt/wt ratio 1.25 (mole ratio 1.1), PPL 4.5 hours",41.2 Relative %
same,PS20 remaining (Relative %),"[1]; [HP-β-CD]/[PS20] wt/wt ratio 2.5 (mole ratio 2.2), PPL 4.5 hours",44.0 Relative %
same,PS20 remaining (Relative %),"[1]; [HP-β-CD]/[PS20] wt/wt ratio 5 (mole ratio 4.35), PPL 4.5 hours",65.3 Relative %
same,PS20 remaining (Relative %),"[1]; [HP-β-CD]/[PS20] wt/wt ratio 12.5 (mole ratio 10.9), PPL 4.5 hours",86.4 Relative %
same,PS20 remaining (Relative %),"[1]; [HP-β-CD]/[PS20] wt/wt ratio 25 (mole ratio 21.8), PPL 4.5 hours",90.3 Relative %
same,PS20 remaining (Relative %),"[1]; [HP-β-CD]/[PS20] wt/wt ratio 37.5 (mole ratio 32.6), PPL 4.5 hours",106.7 Relative %
same,PS20 remaining (Relative %),"[1]; [HP-β-CD]/[PS20] wt/wt ratio 50 (mole ratio 43.5), PPL 4.5 hours",98.6 Relative %
same,PS20 remaining (Relative %),"[1]; [HP-β-CD]/[PS20] wt/wt ratio 100 (mole ratio 87.0), PPL 4.5 hours",93.9 Relative %
same,PS20 remaining (Relative %),"[1]; [HP-β-CD]/[PS20] wt/wt ratio 150 (mole ratio 130.5), PPL 4.5 hours",108.3 Relative %
same,PS20 remaining (Relative %),"[1]; [HP-β-CD]/[PS20] wt/wt ratio 250 (mole ratio 217.6), PPL 4.5 hours",101.9 Relative %
same,PS20 remaining (Relative %),"[1]; [HP-β-CD]/[PS20] wt/wt ratio 750 (mole ratio 652.7), PPL 4.5 hours",104.2 Relative %
same,PS20 remaining (Relative %),"[1]; [HP-β-CD]/[PS20] wt/wt ratio 1000 (mole ratio 870.2), PPL 4.5 hours",104.3 Relative %
same,PS20 remaining (Relative %),"[1]; [HP-β-CD]/[PS20] wt/wt ratio 3000 (mole ratio 2610.6), PPL 4.5 hours",112.4 Relative %
same,effect on SVP formation (in words),[2],significant inhibitory effects
same,HP-β-CD concentration required to completely inhibit sub-visible particle formation,[2]; [3],15%
same,HP-β-CD concentration required to partially inhibit sub-visible particle formation,[2]; [3],0.5%
2-hydroxypropyl-γ-cyclodextrin [HP-γ-CD],inhibitory effect on enzymatic PS20 degradation (in words),[1],able to prevent enzymatic degradation of PS20
"OC[C@H]1O[C@@](CO)(O[C@H]2O[C@H](CO)[C@@H](O)[C@H](O)[C@H]2O)[C@@H](O)[C@@H]1O [sucrose, reference compound]",decrease in PS20,[1],58%
same,inhibitory effect on enzymatic PS20 degradation (in words),[1],does not have an inhibitory effect
